Counter-ions that a name gives are not always drawn. Like-named read-outs stand apart in the source and are kept apart here.
How the values were obtained:
[1] = biological target: T1, SARS-CoV-2 PLpro (nsp3 1564–1878) (Severe acute respiratory syndrome coronavirus 2, UniProt P0DTD1); assay: biochemical; parameters: FRET-quenched peptide (Pro3) cleavage by PLpro, 10 min pre-incubation, slope over 20 min, normalised to no-compound control; details: read-out: % of control remaining
[2] = biological target: T1, SARS-CoV-2 PLpro (nsp3 1564–1878); assay: biochemical; parameters: FRET-quenched peptide (Pro3) cleavage by PLpro, 10 min pre-incubation, slope over 20 min, normalised to no-compound control; details: read-out: % of control remaining; remark: listed apart in the source

O=C(O)C=Cc1ccc(O)cc1 [p-Hydroxycinnamic acid]
remaining activity at 1.25 µM ([1]; Well no.=7161, low concentration screen): 105% | remaining activity at 3.75 µM ([2]; Well no.=7161, high concentration screen): 103%

Cc1cccc(Nc2nc(-c3ccncc3)cs2)c1 [STF-62247]
remaining activity at 1.25 µM ([1]; Well no.=4615, low concentration screen): 102% | remaining activity at 3.75 µM ([2]; Well no.=4615, high concentration screen): 106%

CCCCC[C@H](O)/C=C/[C@H]1OC(O)C[C@H](O)[C@@H]1C/C=C\CCCC(=O)O (stereo partly drawn) [Thromboxane B2]
remaining activity at 1.25 µM ([1]; Well no.=4286, low concentration screen): 99.3% | remaining activity at 3.75 µM ([2]; Well no.=4286, high concentration screen): 98.5%

Oc1ccc2c3c1O[C@H]1[C@@H](O)CC[C@@]4(O)[C@@H](C2)N(CC2CCC2)CC[C@]314 [Nalbuphine]
remaining activity at 1.25 µM [1]: 95.6% | remaining activity at 3.75 µM [2]: 97.3%

O=C(O)CCCCCCCCC(=O)O [Decanedioic acid]
remaining activity at 1.25 µM ([1]; Well no.=6453, low concentration screen): 93% | remaining activity at 3.75 µM ([2]; Well no.=6453, high concentration screen): 95.8%

CCCCCCCCCCCCCCC[C@@H](O)[C@H](CO)NC(=O)CCCCCCC [C8 Dihydroceramide]
remaining activity at 1.25 µM ([1]; Well no.=4395, low concentration screen): 99.8% | remaining activity at 3.75 µM ([2]; Well no.=4395, high concentration screen): 99.1%

CN1[C@@H](CC(=O)c2ccccc2)CCC[C@H]1C[C@H](O)c1ccccc1 [alpha-Lobeline hydrochloride]
remaining activity at 1.25 µM ([1]; Well no.=1025, low concentration screen): 98.8% | remaining activity at 3.75 µM ([2]; Well no.=1025, high concentration screen): 102%

C[C@@H](CN1CC(=O)NC(=O)C1)N1CC(=O)NC(=O)C1 [Dexrazoxane HCl]
remaining activity at 1.25 µM ([1]; Well no.=5139, low concentration screen): 101% | remaining activity at 3.75 µM ([2]; Well no.=5139, high concentration screen): 104%

CC[C@@H](Nc1c(Nc2cccc(C(=O)N(C)C)c2O)c(=O)c1=O)c1ccc(C)o1 [SCH 527123]
remaining activity at 1.25 µM ([1]; Well no.=7087, low concentration screen): 102% | remaining activity at 3.75 µM ([2]; Well no.=7087, high concentration screen): 97.3%

C[C@H](NC(=O)CC=C1NC(=O)c2ccccc2N1)c1ccccc1 [(S)-3-(4-oxo-3,4-dihydroquinazolin-2(1H)-ylidene)-N-(1-phenylethyl)propanamide]
remaining activity at 1.25 µM ([1]; Well no.=6083, low concentration screen): 95.2% | remaining activity at 3.75 µM ([2]; Well no.=6083, high concentration screen): 95.2%

CC(C)[C@H](N)C(=O)OCC(CO)OCn1cnc2c(=O)nc(N)[nH]c21 (stereo partly drawn) [Valganciclovir (hydrochloride)]
remaining activity at 1.25 µM ([1]; Well no.=8044, low concentration screen): 94.6% | remaining activity at 3.75 µM ([2]; Well no.=8044, high concentration screen): 93.4%

Cc1cc(NC(=O)CS(=O)(=O)c2cn(Cc3cc(Br)ccc3F)c3ccccc23)no1 [ML169]
remaining activity at 1.25 µM ([1]; Well no.=5507, low concentration screen): 99% | remaining activity at 3.75 µM ([2]; Well no.=5507, high concentration screen): 97.5%

COc1ccc(-c2nc3cc(C4=NNC(=O)CC4C)ccc3[nH]2)cc1 (stereo not drawn) [Pimobendan (Vetmedin)]
remaining activity at 1.25 µM ([1]; Well no.=4957, low concentration screen): 100% | remaining activity at 3.75 µM ([2]; Well no.=4957, high concentration screen): 103%

C[N+](C)(C)CCOC(=O)CBr [Bromoacetylcholine bromide]
remaining activity at 1.25 µM ([1]; Well no.=181, low concentration screen): 102% | remaining activity at 3.75 µM ([2]; Well no.=181, high concentration screen): 98.9%

O[C@H](c1cc(C(F)(F)F)nc2c(C(F)(F)F)cccc12)[C@@H]1CCCCN1 [(R)-[2,8-bis(trifluoromethyl)-4-quinolinyl][(2S)-2-piperidinyl]methanol hydrochloride]
remaining activity at 1.25 µM ([1]; Well no.=5875, low concentration screen): 105% | remaining activity at 3.75 µM ([2]; Well no.=5875, high concentration screen): 113%

CCCCCCCCCCCCCCCCCCc1ccc(C(=O)/C=C/C(=O)O)cc1 [(2E)-4-(4-octadecylphenyl)-4-oxo-2-butenoic acid]
remaining activity at 1.25 µM ([1]; Well no.=5554, low concentration screen): 97.9% | remaining activity at 3.75 µM ([2]; Well no.=5554, high concentration screen): 99.3%

Cc1cc(C(C)Nc2ccccc2)c2nc(N3CCOCC3)cc(=O)n2c1 (stereo not drawn)
remaining activity at 1.25 µM ([1]; Well no.=2577, low concentration screen): 101% | remaining activity at 3.75 µM ([2]; Well no.=2577, high concentration screen): 101%

Nc1ccc(CCNc2ncnc3c2ncn3[C@@H]2O[C@H](CO)[C@@H](O)[C@H]2O)cc1 [N6-2-(4-Aminophenyl)ethyladenosine]
remaining activity at 1.25 µM ([1]; Well no.=162, low concentration screen): 94.9% | remaining activity at 3.75 µM ([2]; Well no.=162, high concentration screen): 98%

C[C@H](CCC(=O)NCC(=O)O)[C@H]1CC[C@H]2[C@@H]3[C@H](O)C[C@@H]4C[C@H](O)CC[C@]4(C)[C@H]3CC[C@]12C [Glycochenodeoxycholic acid]
remaining activity at 1.25 µM ([1]; Well no.=7020, low concentration screen): 105% | remaining activity at 1.25 µM ([1]; Well no.=7257, low concentration screen): 103% | remaining activity at 3.75 µM ([2]; Well no.=7020, high concentration screen): 102%

CC[C@@H]1C(=O)OC[C@@H]1Cc1cncn1C [Pilocarpine nitrate]
remaining activity at 1.25 µM ([1]; Well no.=1150, low concentration screen): 96.8% | remaining activity at 3.75 µM ([2]; Well no.=1150, high concentration screen): 97%

COc1cc(NC(=O)c2ccccn2)ccc1Cl [VU 0361737]
remaining activity at 1.25 µM ([1]; Well no.=4837, low concentration screen): 98.5% | remaining activity at 3.75 µM ([2]; Well no.=4837, high concentration screen): 106%

NCCCCCCCCCCN [1,10-Diaminodecane]
remaining activity at 1.25 µM ([1]; Well no.=642, low concentration screen): 94.7% | remaining activity at 3.75 µM ([2]; Well no.=642, high concentration screen): 91.7%

Reference: PMC8286840, “Identifying SARS-CoV-2 antiviral compounds by screening for small molecule inhibitors of Nsp3 papain-like protease” (Biochemical Journal, 2021)
